Test results published in patent US20180362961A1, “METHODS AND COMPOSITIONS FOR ENHANCED NUCLEASE-MEDIATED GENOME MODIFICATION AND REDUCED OFF-TARGET SITE EFFECTS” (Danisco US Inc., priority 2015, published 2018).
Like-named read-outs stand apart in the source and are kept apart here.

Key:
[1] = tested on: Yarrowia lipolytica cells
Source text: In this example Yarrowia lipolytica cells treated with the DNA Ligase IV inhibitor, Scr7, were transformed with targeting plasmids in the presence and absence of editing templates. Homology directed repair (HDR) occurs between an editing template and the target DNA when there are two regions of homology flanking a region of interest (FIG. 3). A DNA double-stranded break at a target site within the region of interest can initiate HDR replacing the region of interest (FIG. 3, white box) with a modified region of interest carried on the editing template. In this example the modified region of interest lacks the entire open-reading frame of the CAN1 gene.
Cells were phenotypically scored for Canavanine resistance to determine overall targeting efficiency (NHEJ+HDR). Colony PCR of the CAN1 locus (SEQ ID NO: 35) was performed to differentiate repair of the Cas9/gRNA generated double-strand break by HDR or NHEJ.
Three different treatment conditions were tested: Untreated, Scr7-A, and Scr7-B (A schematic of the three treatments is shown in FIG. 4). For all three conditions a uracil auxotrophic strain of Yarrowia lipolytica ATCC20362 was used For the untreated condition the strain was grown for 24 hours on YPD medium plates (Teknova) at 30° C. (also referred to as a pretreatment). 1 loop of cells were resuspended in transformation buffer (35% polyethylene glycol average molecular weight of 3550, 100 mM lithium acetate, 100 mM dithiothreitol, 10 mM Tris, 1 mM EDTA pH 6.0). 100 μl of cell suspension was mixed with 100 ng of either pRF291 (SEQ ID NO: 18) (Cas9 expression, no gRNA) or pRF303 (SEQ ID NO: 24) (Cas9 expression, Can1-1 gRNA expression) with either no editing template or 1 μg linear editing template (SEQ ID NO: 34). Transformation mixtures were incubated at 39° C. for 1 hour at 800 RPM. Transformation mixtures were plated on complete minimal medium plates lacking uracil (Teknova) to select for cells transformed with plasmid DNA. Plates were incubated at 30° C. for 48 hours.
For treatment Scr7-A the strain was grown for 24 hours on YPD medium plates (Teknova) at 30° C. (also referred to as a pretreatment). 1 loop of cells were resuspended in modified transformation buffer (35% polyethylene glycol average molecular weight of 3550, 100 mM lithium acetate, 100 mM dithiothreitol, 10 mM Tris, 1 mM EDTA pH 6.0, 5 μM Scr7). 100 μl of cell suspension was mixed with 100 ng of either pRF291 (SEQ ID NO:18) (Cas9 expression, no gRNA) or pRF303 (SEQ ID NO: 24) (Cas9 expression, Can1-1 gRNA expression) with either no editing template or 1 μg linear editing template (SEQ ID NO: 31). Transformation mixtures were incubated at 39° C. for 1 hour at 800 RPM. Transformation mixtures were plated on complete minimal medium plates lacking uracil (Teknova) to select for cells transformed with plasmid DNA. Plates were incubated at 30° C. for 48 hours.
For treatment Scr7-B the strain was grown for 24 hours on YPD medium plates containing 5 μM Scr7 at 30° C. (also referred to as a pretreatment). 1 loop of cells were resuspended in modified transformation buffer (35% polyethylene glycol average molecular weight of 3550, 100 mM lithium acetate, 100 mM dithiothreitol, 10 mM Tris, 1 mM EDTA pH 6.0, 5 μM Scr7). 100 μl of cell suspension was mixed with 100 ng of either pRF291 (SEQ ID NO:18) (Cas9 expression, no gRNA) or pRF303 (SEQ ID NO: 24) (Cas9 expression, Can1-1 gRNA expression) with either no editing template or 1 μg linear editing template (SEQ ID NO: 31). Transformation mixtures were incubated at 39° C. for 1 hour at 800 RPM. Transformation mixtures were plated on complete minimal medium containing 5 μM Scr-7 plates lacking uracil. Plates were incubated at 30° C. for 48 hours.
For each condition, 24 colonies from each transformation were streak purified on complete minimal plates lacking uracil (Teknova) for single colonies.

[2] = tested on: Yarrowia lipolytica cells; assay: Colony PCR of the CAN1 locus to determine frequency of HDR at Cas9/gRNA double-strand breaks; type: cell-based; conditions: for Fold HDR over untreated (±SEM) / HDR Frequency (±SEM): pRF303, Can1-1 target site, with editing template
Method: To determine the frequency of HDR at the targeted double-strand breaks generated by Cas9/gRNA at the Can1-1 target site Yarrowia colony PCR of the CAN1 locus (SEQ ID NO: 40) (primers used, […], forward (SEQ ID NO: 38) and […], reverse (SEQ ID NO: 39)) was performed using standard techniques. If the CAN1 locus was unmodified or contained a small indel generated by NHEJ the colony PCR result would give a band similar in size to the WT CAN1 locus at an apparent size of 2125 bp (SEQ ID NO: 40). If the Cas9/gRNA generated double-strand break had been repaired using the editing templates the PCR would generate a smaller CAN1 locus product 392 bp indicating the deletion of the entire open-reading frame (SEQ ID NO: 41). Colony PCR was performed on all canavanine resistant colonies from cells transformed with pRF303 in the presence of editing template and the fraction of cells where the Cas9/gRNA generated double-strand break was repaired via HDR with the editing template and various Scr-7 treatment schemes was determined (Table 1).

[3] = tested on: Yarrowia lipolytica cells; assay: Relative copy number analysis (qPCR) of CAN1 fragment for off-target insertion of editing template by NHEJ; type: cell-based; conditions: for Fraction of cells with single copy of CAN1 / Fraction of cells with ≥2 copies of CAN1: HDR-positive colonies
Method: An additional complication of repair of Cas9/gRNA generated double-stranded breaks using editing template is the possibility that the editing template can be incorporated by the NHEJ pathway at other regions of DNA damage. In order to determine the frequency at which this occurs in the cells treated with editing templates under the three different Scr-7 treatments, relative copy number analysis was performed looking for a 62 bp fragment of the CAN1 locus present in both the chromosome and the editing template (SEQ ID NO: 42). Relative copy number analysis was performed on colonies from cells treated with pRF303 (SEQ ID NO: 24) and linear editing template (SEQ ID NO: 34) under all three treatment conditions. If the editing template is only incorporated during the HDR of the Cas9/gRNA double strand break at the CAN1 locus (SEQ ID NO: 35) the cell will only carry a single copy of the copy number analysis fragment (SEQ ID NO: 42). However, if the cell incorporates additional copies of the editing template elsewhere in the genome due to the activity of the NHEJ pathway additional copies of the fragment will be present and the cell will return a higher relative copy number. Briefly, genomic DNA was isolated using standard techniques from colonies that scored positive for HDR of the Can1-1 Cas9/gRNA targeted double strand break. Genomic DNA was normalized to 5 ng/μl. 1 μl of the normalized genomic DNA from each colony was added to three replicate qPCR reactions for both the CAN1 locus (SEQ ID NO: 42), (primers used, AGCGCCAAACCCAAAGC, forward (SEQ ID NO: 43), […], reverse (SEQ ID NO: 44), and 6FAM-[…]-TAMRA, probe (SEQ ID NO: 45)) or as a control the TEF1 locus (SEQ ID NO: 56) (primers used, […], forward (SEQ ID NO: 47), […], reverse (SEQ ID NO: 48) and 6FAM-[…]-TAMRA, probe (SEQ ID NO: 49)). Reactions were run in TaqMAN universal PCR master mix (ABI life technologies) on a life technologies Quant Studio 7 instrument using the following cycling conditions 95° C. for 10 minutes followed by 40 cycles of 95° C. for 15 seconds, 60° C. for 1 minute. 6FAM fluorescence from the probes was monitored through the 40 cycles of the PCR and Ct values were collected. Relative gene copy number was determined by the ΔΔCt method (User Bulletin #2 ABI PRISM 7700 Sequence Detection System (Updated 2001)). Briefly, TEF1 Ct values were used to normalize the data for differences in cell copy number between genomic DNA samples. Genomic DNA from a wildtype strain was used as a reference for the relative quantification for the CAN1 copy number fragment (SEQ ID NO: 42). Software on the Quant studio 7 calculated relative gene copy number and corresponding error for each sample relative to the wildtype strain. The colonies were separated into two bins, those with a single relative copy of the CAN1 analysis fragment (SEQ ID NO: 42) and those with 2 or more relative copies (SEQ ID NO: 42). […] The second bin represents cells where the editing template was used to repair the Cas9/gRNA generated double-strand break at the Can1-1 target site (SEQ ID NO: 22) and was integrated at least once somewhere else in the genome via a NHEJ mechanism.

[4] = Scr7 treatment A, pRF303 and linear editing template
[5] = Scr7 treatment B, pRF303 and linear editing template

Question: Which “Canavanine resistance frequency (±Std. Dev)” value ([1]; Scr7 treatment A (5 μM Scr7 in transformation buffer), pRF291 (Cas9, no gRNA), no editing template) does the source give for `O=c1[nH]c(=S)[nH]c(N=Cc2ccccc2)c1N=Cc1ccccc1` [Scr7] here?
Answer: 0 ± 0

Question: And the “Canavanine resistance frequency (±Std. Dev)” value ([1]; Scr7 treatment A, pRF291 (Cas9, no gRNA), with editing template)?
Answer: 0 ± 0

Question: And the “Canavanine resistance frequency (±Std. Dev)” value ([1]; Scr7 treatment A, pRF303 (Can1-1 gRNA), no editing template)?
Answer: 62.2 ± 6.7

Question: And the “Canavanine resistance frequency (±Std. Dev)” value ([1]; Scr7 treatment A, pRF303 (Can1-1 gRNA), with editing template)?
Answer: 64.2 ± 6.4

Question: What about the “Canavanine resistance frequency (±Std. Dev)” value ([1]; Scr7 treatment B (5 μM Scr7 in 24 h pretreatment, transformation buffer and selection plates), pRF291 (Cas9, no gRNA), no editing template) of the same compound?
Answer: 0 ± 0

Question: And the “Canavanine resistance frequency (±Std. Dev)” value ([1]; Scr7 treatment B, pRF291 (Cas9, no gRNA), with editing template)?
Answer: 0 ± 0

Question: What about the “Canavanine resistance frequency (±Std. Dev)” value ([1]; Scr7 treatment B, pRF303 (Can1-1 gRNA), no editing template) of the same compound?
Answer: 68.7 ± 6.3

Question: What about the “Canavanine resistance frequency (±Std. Dev)” value ([1]; Scr7 treatment B, pRF303 (Can1-1 gRNA), with editing template) of the same compound?
Answer: 64.6 ± 20.3

Question: What about the Canavanine resistant cells ([1]; pRF291 (Cas9, no functional gRNA), regardless of Scr-7 treatment scheme) of the same compound?
Answer: did not give rise to Canavanine resistance cells

Question: And the “Fold HDR over untreated (±SEM)” value ([2]; Scr7 treatment A)?
Answer: 0.9 ± 0.1 fold

Question: And the “HDR Frequency (±SEM)” value ([2]; Scr7 treatment A)?
Answer: 9.7 ± 1.4

Question: And the “Fold HDR over untreated (±SEM)” value ([2]; Scr7 treatment B)?
Answer: 1.5 ± 0.3 fold

Question: What about the “HDR Frequency (±SEM)” value ([2]; Scr7 treatment B) of the same compound?
Answer: 16.7 ± 4.8

Question: And the “Fold HDR over untreated (±SEM)” value ([2]; Scr7 treatment B, listed as Scr-7)?
Answer: 1.5 fold

Question: What about the “Fraction of breaks repaired via HDR, as % of the frequency of untreated or short Scr-7 treatment A” value ([2]; extended Scr-7 treatment B, linear editing template) of the same compound?
Answer: 150%

Question: And the “Fraction of cells with single copy of CAN1” value [3, 4]?
Answer: 0.38

Question: What about the “Fraction of cells with ≥2 copies of CAN1” value [3, 4] of the same compound?
Answer: 0.63

Question: What about the “Fraction of cells with single copy of CAN1” value [3, 5] of the same compound?
Answer: 1

Question: What about the “Fraction of cells with ≥2 copies of CAN1” value [3, 5] of the same compound?
Answer: 0

Question: What about the “Colonies with a single copy of the CAN1 editing template” value ([3]; Scr-7 treatment A, pRF303 and linear editing template) of the same compound?
Answer: approximately 40%

Question: What about the “Colonies with only a single copy of the CAN1 locus” value ([3]; Scr-7 treatment B, pRF303 and editing template) of the same compound?
Answer: 100%
